# ChEMBL document CHEMBL1139992, “Synthesis and biological activity of enantiomeric pairs of 5-vinylthiolactomycin congeners” (Bioorg Med Chem Lett, 2007)
# Test system: Moraxella catarrhalis
# Test: Antimicrobial activity against Moraxella catarrhalis ATCC 25238
# Type: functional
row,Structure (SMILES),MIC [µg/mL]
1,C=C/C(C)=C/[C@]1(C)SC(=O)C(C)=C1O,> 128
2,CCC/C=C/[C@]1(C)SC(=O)C=C1O,> 128
3,C=C[C@]1(C)SC(=O)C(C)=C1O,> 128
4,C=C[C@]1(C)SC(=O)C=C1O,> 128
5,C/C=C/[C@@]1(C)SC(=O)C(C)=C1O,> 128
6,C/C=C/[C@@]1(C)SC(=O)C=C1O,> 128
7,CC/C=C/[C@@]1(C)SC(=O)C(C)=C1O,> 128
8,CC/C=C/[C@]1(C)SC(=O)C(C)=C1O,> 128
9,CC/C=C/[C@]1(C)SC(=O)C=C1O,> 128
10,CCC/C=C/[C@]1(C)SC(=O)C(C)=C1O,> 128
11,CCC/C=C/[C@@]1(C)SC(=O)C=C1O,> 128
12,CCCC/C=C/[C@]1(C)SC(=O)C(C)=C1O,> 128
13,CCCC/C=C/[C@@]1(C)SC(=O)C=C1O,> 128
14,CCCCCC/C=C/[C@@]1(C)SC(=O)C(C)=C1O,> 128
15,CCCCCC/C=C/[C@@]1(C)SC(=O)C=C1O,> 128
16,C=C/C(C)=C/[C@@]1(C)SC(=O)C=C1O,16
17,C=C/C(C)=C/[C@]1(C)SC(=O)C=C1O,> 128
18,C=C[C@@]1(C)SC(=O)C(C)=C1O,> 128
19,CCCC/C=C/[C@@]1(C)SC(=O)C(C)=C1O,> 128
20,CCCC/C=C/[C@]1(C)SC(=O)C=C1O,> 128
21,CC/C=C/[C@@]1(C)SC(=O)C=C1O,> 128
22,C/C=C/[C@]1(C)SC(=O)C(C)=C1O,> 128
23,C/C=C/[C@]1(C)SC(=O)C=C1O,> 128
24,C=C[C@@]1(C)SC(=O)C=C1O,> 128
25,CCC/C=C/[C@@]1(C)SC(=O)C(C)=C1O,> 128
26,O=C(O)c1cn(C2CC2)c2cc(N3CCNCC3)c(F)cc2c1=O [CIPROFLOXACIN],0.031
27,C=C/C(C)=C/[C@@]1(C)SC(=O)C(C)=C1O [THIOLACTOMYCIN],0.25

# Test system: Bacteroides fragilis
# Test: Antimicrobial activity against Bacteroides fragilis GAI5560
# Type: functional
row,Structure (SMILES),MIC [µg/mL]
1,CCC/C=C/[C@]1(C)SC(=O)C=C1O,> 128
2,C=C[C@]1(C)SC(=O)C(C)=C1O,> 128
3,C=C[C@]1(C)SC(=O)C=C1O,> 128
4,C/C=C/[C@@]1(C)SC(=O)C(C)=C1O,> 128
5,C/C=C/[C@@]1(C)SC(=O)C=C1O,> 128
6,CC/C=C/[C@@]1(C)SC(=O)C(C)=C1O,> 128
7,CC/C=C/[C@]1(C)SC(=O)C(C)=C1O,> 128
8,CC/C=C/[C@]1(C)SC(=O)C=C1O,> 128
9,CCC/C=C/[C@]1(C)SC(=O)C(C)=C1O,> 128
10,CCC/C=C/[C@@]1(C)SC(=O)C=C1O,> 128
11,CCCC/C=C/[C@]1(C)SC(=O)C(C)=C1O,> 128
12,CCCC/C=C/[C@@]1(C)SC(=O)C=C1O,> 128
13,CCCCCC/C=C/[C@@]1(C)SC(=O)C(C)=C1O,> 128
14,CCCCCC/C=C/[C@@]1(C)SC(=O)C=C1O,> 128
15,C=C/C(C)=C/[C@@]1(C)SC(=O)C=C1O,128
16,C=C[C@@]1(C)SC(=O)C(C)=C1O,> 128
17,CCCC/C=C/[C@@]1(C)SC(=O)C(C)=C1O,> 128
18,CCCC/C=C/[C@]1(C)SC(=O)C=C1O,> 128
19,CC/C=C/[C@@]1(C)SC(=O)C=C1O,> 128
20,C/C=C/[C@]1(C)SC(=O)C(C)=C1O,> 128
21,C/C=C/[C@]1(C)SC(=O)C=C1O,> 128
22,C=C[C@@]1(C)SC(=O)C=C1O,> 128
23,CCC/C=C/[C@@]1(C)SC(=O)C(C)=C1O,> 128
24,O=C(O)c1cn(C2CC2)c2cc(N3CCNCC3)c(F)cc2c1=O [CIPROFLOXACIN],4
25,C=C/C(C)=C/[C@@]1(C)SC(=O)C(C)=C1O [THIOLACTOMYCIN],1

# Test system: not listed separately
# Test: Inhibition of type1 FAS in HepG2 cells
# Type: cell-based, Homo sapiens
row,Structure (SMILES),IC50 [µg/mL]
1,C=C/C(C)=C/[C@]1(C)SC(=O)C(C)=C1O,43.7
2,CCC/C=C/[C@]1(C)SC(=O)C=C1O,8.8
3,C=C[C@]1(C)SC(=O)C(C)=C1O,> 80
4,C=C[C@]1(C)SC(=O)C=C1O,70.1
5,C/C=C/[C@@]1(C)SC(=O)C(C)=C1O,72.3
6,C/C=C/[C@@]1(C)SC(=O)C=C1O,72.1
7,CC/C=C/[C@@]1(C)SC(=O)C(C)=C1O,57.5
8,CC/C=C/[C@]1(C)SC(=O)C(C)=C1O,47
9,CC/C=C/[C@]1(C)SC(=O)C=C1O,18.9
10,CCC/C=C/[C@]1(C)SC(=O)C(C)=C1O,20
11,CCC/C=C/[C@@]1(C)SC(=O)C=C1O,41.6
12,CCCC/C=C/[C@]1(C)SC(=O)C(C)=C1O,19.9
13,CCCC/C=C/[C@@]1(C)SC(=O)C=C1O,18.6
14,CCCCCC/C=C/[C@@]1(C)SC(=O)C(C)=C1O,57
15,CCCCCC/C=C/[C@@]1(C)SC(=O)C=C1O,20.1
16,C=C1C(=O)O[C@@H](CCCCCCCC)[C@@H]1C(=O)O,7.4
17,C=C/C(C)=C/[C@@]1(C)SC(=O)C=C1O,> 80
18,C=C/C(C)=C/[C@]1(C)SC(=O)C=C1O,19
19,C=C[C@@]1(C)SC(=O)C(C)=C1O,> 80
20,CCCC/C=C/[C@@]1(C)SC(=O)C(C)=C1O,33.7
21,CCCC/C=C/[C@]1(C)SC(=O)C=C1O,21
22,CC/C=C/[C@@]1(C)SC(=O)C=C1O,40.3
23,C/C=C/[C@]1(C)SC(=O)C(C)=C1O,37.1
24,C/C=C/[C@]1(C)SC(=O)C=C1O,> 80
25,C=C[C@@]1(C)SC(=O)C=C1O,> 80
26,CCC/C=C/[C@@]1(C)SC(=O)C(C)=C1O,41.5
27,CCCCCC/C=C/[C@]1(C)SC(=O)C(C)=C1O (stereo in doubt; form 1),34.8
28,C=C/C(C)=C/[C@@]1(C)SC(=O)C(C)=C1O [THIOLACTOMYCIN],> 80

# Test system: Staphylococcus aureus
# Test: Antimicrobial activity against Staphylococcus aureus
# Type: functional
row,Structure (SMILES),MIC [µg/mL]
1,C=C/C(C)=C/[C@]1(C)SC(=O)C(C)=C1O,> 128
2,CCC/C=C/[C@]1(C)SC(=O)C=C1O,> 128
3,C=C[C@]1(C)SC(=O)C(C)=C1O,> 128
4,C=C[C@]1(C)SC(=O)C=C1O,> 128
5,C/C=C/[C@@]1(C)SC(=O)C(C)=C1O,> 128
6,C/C=C/[C@@]1(C)SC(=O)C=C1O,> 128
7,CC/C=C/[C@@]1(C)SC(=O)C(C)=C1O,> 128
8,CC/C=C/[C@]1(C)SC(=O)C(C)=C1O,> 128
9,CC/C=C/[C@]1(C)SC(=O)C=C1O,> 128
10,CCC/C=C/[C@]1(C)SC(=O)C(C)=C1O,> 128
11,CCC/C=C/[C@@]1(C)SC(=O)C=C1O,> 128
12,CCCC/C=C/[C@]1(C)SC(=O)C(C)=C1O,> 128
13,CCCC/C=C/[C@@]1(C)SC(=O)C=C1O,> 128
14,CCCCCC/C=C/[C@@]1(C)SC(=O)C(C)=C1O,> 128
15,CCCCCC/C=C/[C@@]1(C)SC(=O)C=C1O,> 128
16,C=C/C(C)=C/[C@@]1(C)SC(=O)C=C1O,> 128
17,C=C/C(C)=C/[C@]1(C)SC(=O)C=C1O,> 128
18,C=C[C@@]1(C)SC(=O)C(C)=C1O,> 128
19,CCCC/C=C/[C@@]1(C)SC(=O)C(C)=C1O,> 128
20,CCCC/C=C/[C@]1(C)SC(=O)C=C1O,> 128
21,CC/C=C/[C@@]1(C)SC(=O)C=C1O,> 128
22,C/C=C/[C@]1(C)SC(=O)C(C)=C1O,> 128
23,C/C=C/[C@]1(C)SC(=O)C=C1O,> 128
24,C=C[C@@]1(C)SC(=O)C=C1O,> 128
25,CCC/C=C/[C@@]1(C)SC(=O)C(C)=C1O,> 128
26,O=C(O)c1cn(C2CC2)c2cc(N3CCNCC3)c(F)cc2c1=O [CIPROFLOXACIN],0.063
27,C=C/C(C)=C/[C@@]1(C)SC(=O)C(C)=C1O [THIOLACTOMYCIN],128

# Test system: Haemophilus influenzae
# Test: Antimicrobial activity against Haemophilus influenzae IID983
# Type: functional
row,Structure (SMILES),MIC [µg/mL]
1,CCC/C=C/[C@]1(C)SC(=O)C=C1O,> 128
2,C=C[C@]1(C)SC(=O)C(C)=C1O,> 128
3,C=C[C@]1(C)SC(=O)C=C1O,> 128
4,C/C=C/[C@@]1(C)SC(=O)C(C)=C1O,> 128
5,C/C=C/[C@@]1(C)SC(=O)C=C1O,> 128
6,CC/C=C/[C@@]1(C)SC(=O)C(C)=C1O,> 128
7,CC/C=C/[C@]1(C)SC(=O)C(C)=C1O,> 128
8,CC/C=C/[C@]1(C)SC(=O)C=C1O,> 128
9,CCC/C=C/[C@]1(C)SC(=O)C(C)=C1O,> 128
10,CCC/C=C/[C@@]1(C)SC(=O)C=C1O,> 128
11,CCCC/C=C/[C@]1(C)SC(=O)C(C)=C1O,> 128
12,CCCC/C=C/[C@@]1(C)SC(=O)C=C1O,> 128
13,CCCCCC/C=C/[C@@]1(C)SC(=O)C(C)=C1O,> 128
14,CCCCCC/C=C/[C@@]1(C)SC(=O)C=C1O,> 128
15,C=C/C(C)=C/[C@@]1(C)SC(=O)C=C1O,32
16,C=C[C@@]1(C)SC(=O)C(C)=C1O,> 128
17,CCCC/C=C/[C@@]1(C)SC(=O)C(C)=C1O,> 128
18,CCCC/C=C/[C@]1(C)SC(=O)C=C1O,> 128
19,CC/C=C/[C@@]1(C)SC(=O)C=C1O,> 128
20,C/C=C/[C@]1(C)SC(=O)C(C)=C1O,> 128
21,C/C=C/[C@]1(C)SC(=O)C=C1O,> 128
22,C=C[C@@]1(C)SC(=O)C=C1O,> 128
23,CCC/C=C/[C@@]1(C)SC(=O)C(C)=C1O,> 128
24,O=C(O)c1cn(C2CC2)c2cc(N3CCNCC3)c(F)cc2c1=O [CIPROFLOXACIN],0.008
25,C=C/C(C)=C/[C@@]1(C)SC(=O)C(C)=C1O [THIOLACTOMYCIN],2
